Measured values taken from PMC9308172 (Journal of medicinal chemistry, 2017).

Biological target: M2TMS31N (Influenza A virus, UniProt P0DOF5, S31N)
Format: binding, influenza A (A/Udorn/307/72, S31N mutant)
Details: for binding to M2TMS31N according to ITC (in words): pH 8

CCCC1(N)C2CC3CC(C2)CC1C3 (centres unmarked) [Compound 5]
binding to M2TMS31N according to ITC (in words): bind weakly

C1CNC2(C1)C1CC3CC(C1)CC2C3 (centres unmarked) [Compound 6]
ΔG: -6.68 ± 0.296 kcal/mol
binding to M2TMS31N according to ITC (in words): bind weakly

NC1(C23CC4CC(CC(C4)C2)C3)CCCC1 [Compound 9]
ΔG: -6.745 ± 0.229 kcal/mol

NC1(C23CC4CC(CC(C4)C2)C3)CCCCC1 [Compound 10, 1-(1-Adamantyl)cyclohexanamine]
ΔG: -7.029 ± 0.308 kcal/mol
